According to publication PMC7400108, “Squalamine and Aminosterol Mimics Inhibit the Peptidoglycan Glycosyltransferase Activity of PBP1b” (Antibiotics, 2020):
Where “and” joins values, the source holds several entries; their conditions need not be identical. Equal values may be shown once. Entries after “also recorded” stand apart in the source; their conditions may differ. Read-outs that look alike come from different tables or passages of the source.

How the values were obtained:
[1] = target: T1, E. coli PBP1b (Escherichia coli, UniProt P02919); experiment: GTase inhibition assay: residual activity and IC50 of PBP1b (radioactive lipid II endpoint TLC assay, dansyl-lipid II continuous fluorescence assay); format: biochemical; conditions: for remaining activity at 800 µM: read-out: RA % (0.8 mM), residual GTase activity of PBP1b, compound 0.8 mM (800 µM); for remaining activity at 800 µM / RA % (0.4 mM), residual GTase activity of PBP1b / RA % (0.8 mM), residual GTase activity of PBP1b: compared to nontreated control; for RA % (0.4 mM), residual GTase activity of PBP1b: compound 0.4 mM (400 µM); for RA % (0.8 mM), residual GTase activity of PBP1b: compound 0.8 mM (800 µM)
T1 construct: PBP1bγ(M46-N844) was purified as previously described; made in house
T1 sequence (P02919 46-844): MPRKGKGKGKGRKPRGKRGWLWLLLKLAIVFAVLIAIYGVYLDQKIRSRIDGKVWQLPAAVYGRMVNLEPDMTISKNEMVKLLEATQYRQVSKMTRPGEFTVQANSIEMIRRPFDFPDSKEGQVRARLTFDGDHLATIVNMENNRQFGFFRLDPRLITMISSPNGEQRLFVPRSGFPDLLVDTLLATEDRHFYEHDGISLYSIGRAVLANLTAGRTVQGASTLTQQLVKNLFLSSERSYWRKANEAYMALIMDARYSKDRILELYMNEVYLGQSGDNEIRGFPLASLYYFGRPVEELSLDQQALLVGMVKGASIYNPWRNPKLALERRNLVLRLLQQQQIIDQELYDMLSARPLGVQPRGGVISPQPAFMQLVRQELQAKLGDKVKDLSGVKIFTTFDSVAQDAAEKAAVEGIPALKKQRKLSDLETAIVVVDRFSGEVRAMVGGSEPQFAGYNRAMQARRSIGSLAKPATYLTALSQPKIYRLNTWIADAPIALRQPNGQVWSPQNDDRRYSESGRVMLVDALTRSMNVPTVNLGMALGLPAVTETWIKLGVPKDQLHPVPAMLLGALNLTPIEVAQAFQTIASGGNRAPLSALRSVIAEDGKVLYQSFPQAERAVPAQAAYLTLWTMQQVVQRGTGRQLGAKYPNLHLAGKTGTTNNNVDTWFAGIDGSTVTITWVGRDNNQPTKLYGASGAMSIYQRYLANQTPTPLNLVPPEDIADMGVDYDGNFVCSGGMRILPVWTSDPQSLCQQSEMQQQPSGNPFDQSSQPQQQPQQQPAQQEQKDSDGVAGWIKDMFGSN
Protocol: The continuous fluorescence GTase activity assay of PBP1b was performed using dansyl lipid II as substrate as described.
The end-point assay, based on radiolabeled lipid II ([^14C]lipid II), was performed in 30 µL in the same conditions as the fluorescence assay using 4 µM [^14C]lipid II (0.06 µCi/nmol) instead of the fluorescent substrate and by omitting the muramidase. The reaction was incubated 15 min at 30 °C, stopped by heating at 80 °C for 10min and the products were separated by thin-layer chromatography (TLC) on silica gel plates in 2-propanol–ammonium hydroxide (25%)–H2O (6:3:1; v/v/v).
The GTase inhibition assay was carried out by measuring the residual activity (RA) of E. coli PBP1b in the presence of 400 and 800 μM compounds. All the assays were repeated at least three times. The IC50 values were determined for the active compounds using variable concentrations of inhibitor (0−1000 μM) by fitting the data using GraphPad Prism 6.0 software.

[2] = tested on: S. aureus; set-up: method as in PMID 31063379; conditions: cited from earlier work
[3] = target: T2, PBP1b (Escherichia coli, UniProt P02919); experiment: Fluorescence anisotropy competition assay, displacement of NBD-lipid II probe from PBP1b; format: binding; conditions: NBD-lipid II 0.33 µM, PBP1b ~1 µM, serial dilutions of compound
T2 construct: PBP1bγ(M46-N844) was purified as previously described; made in house
T2 sequence (P02919 46-844): as above
Protocol: (§1) FA assay was performed as previously described. Briefly, fixed concentrations of NBD-lipid II (0.33 µM) and PBP1b (~1 µM) in the 25 mM Tris–HCl pH 7.5, NaCl 0.1 M, CHAPS 0.14% w/v, were mixed with serial dilutions of the compounds in 384-well plates. Measurement were performed using an Infinite F Plex (Tecan, Männedorf, Switzerland) microplate reader equipped with polarization filters with excitation and emission wavelengths at 485 and 535 nm respectively. All the experiments were performed in triplicates. For direct binding evaluation of the compounds with the probe, the experiments were performed in the same condition in the absence of the protein. FA values in millianisotropy units (mA) were plotted as a function of compound concentrations in µM as previously described.

[4] = Fluorescence anisotropy direct binding of compounds to the probe in the absence of the protein; conditions: NBD-lipid II 0.33 µM, no protein
Protocol: as §1

[5] = tested on: E. coli; set-up: method as in PMID 31063379; conditions: cited from earlier work
[6] = target: T1, E. coli PBP1b; experiment: GTase inhibition assay: residual activity and IC50 of PBP1b (radioactive lipid II endpoint TLC assay, dansyl-lipid II continuous fluorescence assay); format: biochemical; conditions: up to 5 mM (1-5 mM), below CMC
[7] = mean of three experiments ± s.d.
[8] = variable inhibitor concentrations 0-1000 µM, mean of three experiments ± s.d., read-out: IC50, GTase activity of PBP1b

CC(=O)[C@H]1CC[C@H]2[C@@H]3CCC4=CC(=O)CC[C@]4(C)[C@H]3CC[C@]12C [Compound 12, progesterone, reference compound]
Inhibition of GTase activity of PBP1b (in words) ([1]; concentration not given): do not inhibit
remaining activity at 800 µM [1, 7]: 98 ± 1%

N1,N1’-((3S,7R,10R,13R,17R)-10,13-dimethyl-17-((R)-5-methylhexan-2-yl)-tetradecahydro-1H-cyclopenta[a]phenanthrene-3,7-diyl)bis(pentane-1,5-diamine) [Compound 7]
RA % (0.4 mM), residual GTase activity of PBP1b [1, 7]: 12.5 ± 4.4%
RA % (0.8 mM), residual GTase activity of PBP1b [1, 7]: 1.5 ± 0.8%
IC50 [1, 8]: 229 ± 17 µM

CC(C)[C@@H](CC[C@@H](C)[C@H]1CC[C@H]2[C@@H]3[C@H](O)C[C@H]4C[C@@H](NCCCNCCCCN)CC[C@]4(C)[C@H]3CC[C@]12C)OS(=O)(=O)O [Squalamine (1), Squalamine]
MIC [2]: ~ 3 µg/mL
Competition with lipid II for binding to PBP1b (change of FA of the probe) [3]: able to compete; also recorded: decrease of the FA
Direct interaction between fluorescent lipid II and compound (FA) [4]: no significant interaction
MIC [5]: ~ 3 µg/mL
RA % (0.4 mM), residual GTase activity of PBP1b [1, 7]: 6 ± 2%
remaining activity at 800 µM [1, 7]: 1.1 ± 0.6%
IC50 [1, 8]: 291 ± 26 µM

CC(C)CCCC(C)C1CCC2C3C(NCCCCN)C=C4CC(O)CCC4(C)C3CCC12C (stereo not drawn) [Compound 9]
RA % (0.8 mM), residual GTase activity of PBP1b [1, 7]: 98% and 98 ± 1%
Inhibition of GTase activity of PBP1b (in words) ([1]; concentration not given): almost inactive

CC(C)CCC[C@@H](C)[C@H]1CCC2C3C(CC[C@@]21C)[C@@]1(C)CC[C@H](O)CC1C[C@@H]3NCCCN (stereo partly drawn) [Compound 4]
RA % (0.4 mM), residual GTase activity of PBP1b [1, 7]: 39 ± 2%
remaining activity at 800 µM [1, 7]: 4 ± 1%
IC50 [1, 8]: 303 ± 15 µM

CC(C)CCC[C@@H](C)[C@H]1CCC2C3C[C@@H](NCCCNCCCCNCCCN)C4C[C@@H](O)CC[C@]4(C)C3CC[C@@]21C (stereo partly drawn) [Compound 6, 6β-(spermine)-cholestan-3β-ol]
Competition with lipid II for binding to PBP1b (change of FA of the probe) [3]: able to compete; also recorded: decrease of the FA
Direct interaction between fluorescent lipid II and compound (FA) [4]: no significant interaction
IC50 [1]: 111 ± 6 µM
RA % (0.4 mM), residual GTase activity of PBP1b [1, 7]: 3.9 ± 0.1%
remaining activity at 800 µM [1, 7]: 0.8 ± 0.4%

CC(C)CCCC(C)C1CCC2C3C(NCCCCN)C=C4CC(O)CCC4(C)C3CCC12C (stereo not drawn) [Compound 2]
RA % (0.4 mM), residual GTase activity of PBP1b [1, 7]: 1.2 ± 0.3%
RA % (0.8 mM), residual GTase activity of PBP1b [1, 7]: 0.3 ± 0.1%
IC50 [1, 8]: 114 ± 6 µM

C[C@H](NCCCCN)[C@H]1CCC2C3CCC4=C[C@@H](NCCCCN)CC[C@]4(C)C3CC[C@@]21C (stereo partly drawn) [Compound 13]
Inhibition of GTase activity of PBP1b (in words) ([1]; 0.8 mM compound, radioactive lipid II, endpoint TLC assay): inactive
Inhibition of GTase activity of PBP1b (in words) ([1]; concentration not given): absence of activity
remaining activity at 800 µM [1, 7]: 100%

CC(C)CCC[C@@H](C)[C@H]1CCC2C3C(CC[C@@]21C)[C@@]1(C)CC[C@H](O)CC1=C[C@@H]3NCCCNCCCCNCCCN (stereo partly drawn) [Compound 3]
RA % (0.4 mM), residual GTase activity of PBP1b [1, 7]: 16 ± 2%
remaining activity at 800 µM [1, 7]: 8.5 ± 3.1%
IC50 [1, 8]: 220 ± 10 µM

CC(C)CCC[C@@H](C)[C@H]1CCC2C3C[C@@H](NCCCCN)C4C[C@@H](O)CC[C@]4(C)C3CC[C@@]21C (stereo partly drawn) [Compound 5, 6β-(1,4-diaminobutane)-cholestan-3β-ol]
RA % (0.4 mM), residual GTase activity of PBP1b [1, 7]: 16 ± 1.4%
remaining activity at 800 µM [1, 7]: 3 ± 1%
IC50 [1, 8]: 221 ± 26 µM

C[C@H](CCC(=O)NCCC[N+](C)(C)CCCS(=O)(=O)[O-])[C@H]1CCC2C3C(C[C@H](O)[C@@]21C)[C@@]1(C)CC[C@H](O)CC1C[C@H]3O (stereo partly drawn) [CHAPS]
Inhibition of PBP1b GTase activity (in words) [6]: no inhibition

C[C@]12CCC3c4ccc(O)cc4CCC3C1CC[C@@H]2NCCCCN (stereo partly drawn) [Compound 15, (13S,17S)-17-((4-aminobutyl)amino)-13-methyl-7,8,9,11,12,13,14,15,16,17-decahydro-6H-cyclopenta[a]phenanthren-3-ol]
Competition with lipid II for binding to PBP1b (change of FA of the probe) [3]: no effect; also recorded: does not affect the FA
Direct interaction between fluorescent lipid II and compound (FA) [4]: no significant interaction
Inhibition of GTase activity of PBP1b (in words) ([1]; concentration not given): absence of activity
remaining activity at 800 µM [1, 7]: 105 ± 3%
